Laboratory results published in ChEMBL document CHEMBL4680379, “Structure-based Discovery of Cell-Potent Peptidomimetic Inhibitors for Protein N-Terminal Methyltransferase 1” (ACS Med Chem Lett, 2021).
Values belong to the compound of their own block, whether it stands above or below them. The source made the active and inactive calls. The calls are words filed in the database; no cut-off is given here.

How the values were obtained:
[1] = molecular target: T1, N-terminal Xaa-Pro-Lys N-methyltransferase 1 (Homo sapiens) (UniProt Q9BV86); experiment: Inhibition of NTMT1 in human HCT116 cells assessed as decrease in me3-SPK level at 1 mM incubated for 3 days by Western blot analysis relative to control; format: cell-based; conditions: HCT-116, time 3.0 day
T1 sequence (whole entry): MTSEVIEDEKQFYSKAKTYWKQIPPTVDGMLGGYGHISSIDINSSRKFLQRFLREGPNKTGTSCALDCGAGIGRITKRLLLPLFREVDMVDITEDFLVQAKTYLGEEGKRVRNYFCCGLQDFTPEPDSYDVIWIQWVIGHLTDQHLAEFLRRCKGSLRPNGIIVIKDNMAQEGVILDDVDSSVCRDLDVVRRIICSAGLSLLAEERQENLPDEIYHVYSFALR

[2] = molecular target: T1, N-terminal Xaa-Pro-Lys N-methyltransferase 1 (Homo sapiens); experiment: Inhibition of NTMT1 in human HCT116 cells assessed as decrease in me3-SPK level at 300 uM incubated for 3 days by Western blot analysis relative to control; format: cell-based; conditions: HCT-116, time 3.0 day
[3] = molecular target: T2, N-terminal Xaa-Pro-Lys N-methyltransferase 1 (Homo sapiens, UniProt Q9BV86); experiment: Inhibition of recombinant human N-terminal His6-tagged NTMT1 (1 to 222 residues) expressed in Escherichia coli BL21-CodonPlus(DE3)-RIL using GPKRIA peptide and SAM as substrate pre-incubated for 10 mins in presence of SAM followed by substrate addition by SAHH coupled fluorescence assay
T2 sequence (Q9BV86 whole entry): T1 sequence (whole entry)

[4] = molecular target: T1, N-terminal Xaa-Pro-Lys N-methyltransferase 1 (Homo sapiens); experiment: Inhibition of NTMT1 in human HCT116 cells assessed as decrease in me3-SPK level at 100 uM incubated for 3 days by Western blot analysis relative to control; format: cell-based; conditions: HCT-116, time 3.0 day
[5] = molecular target: Trypsin (Homo sapiens, UniProt P07477+P07478+P35030); experiment: Stability of compound assessed as trypsin (unknown origin) mediated compound hydrolysis at 10 uM incubated for 1 hr by MALDI-MS analysis; format: ADME, protein assay
[6] = molecular target: T1, N-terminal Xaa-Pro-Lys N-methyltransferase 1 (Homo sapiens); experiment: Inhibition of NTMT1 in human HCT116 cells assessed as decrease in me3-RCC1 level at 100 uM incubated for 3 days by Western blot analysis; format: cell-based; conditions: HCT-116, time 3.0 day
[7] = system: HT-29; experiment: Cytotoxicity against human HT29 cells assessed as reduction in cell viability up to 1 mM incubated for 48 hrs by resazurin-dye based alamar blue assay; conditions: ht-29, 48 h
[8] = organism: Homo sapiens; experiment: Selectivity for recombinant human N-terminal His6-tagged NTMT1 (1 to 222 residues) expressed in Escherichia coli BL21-CodonPlus(DE3)-RIL over SAHH (unknown origin)
[9] = system: Trypanosoma brucei; experiment: Inhibition of Trypanosoma brucei N-terminal His6-tagged PRMT7 expressed in Escherichia coli BL21-CodonPlus(DE3)-RIL at 100 uM using H4-21 peptide as substrate preincubated for 10 mins in presence of SAM followed by substrate addition by SAHH-coupled fluorescence assay relative to control
[10] = molecular target: Adenosylhomocysteinase (Homo sapiens) (UniProt P23526); experiment: Inhibition of SAHH (unknown origin) at 100 uM relative to control
[11] = system: HT-29; experiment: Cytotoxicity against human HT29 cells assessed as reduction in cell viability up to 1 mM incubated for 24 hrs by resazurin-dye based alamar blue assay; conditions: ht-29, 24 h
[12] = Selectivity for recombinant human N-terminal His6-tagged NTMT1 (1 to 222 residues) expressed in Escherichia coli BL21-CodonPlus(DE3)-RIL over Trypanosoma brucei N-terminal His6-tagged PRMT7 expressed in Escherichia coli BL21-CodonPlus(DE3)-RIL
[13] = molecular target: Protein arginine N-methyltransferase 3 (Homo sapiens) (UniProt O60678); experiment: Inhibition of PRMT3 (unknown origin) at 100 uM relative to control
[14] = molecular target: T3, Histone-lysine N-methyltransferase EHMT2 (Homo sapiens) (UniProt Q96KQ7); experiment: Inhibition of human His-tagged G9a (913 to 1193 residues) expressed in Escherichia coli BL21-CodonPlus(DE3)-RIL at 100 uM using H3-21 peptide as substrate preincubated for 10 mins in presence of SAM followed by substrate addition by SAHH-coupled fluorescence assay relative to control
T3 sequence (whole entry): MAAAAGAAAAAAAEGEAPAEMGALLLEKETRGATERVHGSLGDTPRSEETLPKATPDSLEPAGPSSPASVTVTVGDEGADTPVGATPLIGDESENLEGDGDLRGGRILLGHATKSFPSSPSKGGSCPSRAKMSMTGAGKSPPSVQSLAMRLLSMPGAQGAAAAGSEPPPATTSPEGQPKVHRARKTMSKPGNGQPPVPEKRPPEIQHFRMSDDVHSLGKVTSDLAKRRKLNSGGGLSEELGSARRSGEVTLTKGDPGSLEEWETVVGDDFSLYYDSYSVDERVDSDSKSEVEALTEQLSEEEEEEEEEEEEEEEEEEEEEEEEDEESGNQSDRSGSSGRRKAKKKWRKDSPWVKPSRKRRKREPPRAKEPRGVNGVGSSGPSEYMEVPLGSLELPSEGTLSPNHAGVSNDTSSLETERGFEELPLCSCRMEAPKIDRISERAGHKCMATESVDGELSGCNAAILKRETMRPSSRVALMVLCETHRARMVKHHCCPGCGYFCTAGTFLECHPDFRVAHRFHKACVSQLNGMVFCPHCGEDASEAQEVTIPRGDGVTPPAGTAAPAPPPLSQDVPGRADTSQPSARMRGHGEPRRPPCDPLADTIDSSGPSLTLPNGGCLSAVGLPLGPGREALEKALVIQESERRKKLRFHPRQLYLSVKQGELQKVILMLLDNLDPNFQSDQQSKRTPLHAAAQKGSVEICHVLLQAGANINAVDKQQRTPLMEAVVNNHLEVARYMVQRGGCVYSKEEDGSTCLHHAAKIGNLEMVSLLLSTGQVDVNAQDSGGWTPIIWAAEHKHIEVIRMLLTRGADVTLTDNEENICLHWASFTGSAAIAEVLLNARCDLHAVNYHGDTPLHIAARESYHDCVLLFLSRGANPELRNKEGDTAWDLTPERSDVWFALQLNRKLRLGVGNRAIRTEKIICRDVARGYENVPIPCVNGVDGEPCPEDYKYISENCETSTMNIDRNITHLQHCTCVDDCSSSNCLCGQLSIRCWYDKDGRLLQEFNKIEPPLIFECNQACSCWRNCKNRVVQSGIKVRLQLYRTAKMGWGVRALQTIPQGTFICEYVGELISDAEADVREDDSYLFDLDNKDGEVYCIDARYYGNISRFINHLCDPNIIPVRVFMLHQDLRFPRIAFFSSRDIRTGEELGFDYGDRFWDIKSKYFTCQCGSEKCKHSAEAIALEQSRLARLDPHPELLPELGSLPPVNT

[15] = molecular target: T4, Histone-lysine N-methyltransferase SETD7 (Homo sapiens) (UniProt Q8WTS6); experiment: Inhibition of His-tagged SETD7 (unknown origin) at 100 uM using H3-21 peptide as substrate preincubated for 10 mins in presence of SAM followed by substrate addition by SAHH-coupled fluorescence assay relative to control
T4 sequence (whole entry): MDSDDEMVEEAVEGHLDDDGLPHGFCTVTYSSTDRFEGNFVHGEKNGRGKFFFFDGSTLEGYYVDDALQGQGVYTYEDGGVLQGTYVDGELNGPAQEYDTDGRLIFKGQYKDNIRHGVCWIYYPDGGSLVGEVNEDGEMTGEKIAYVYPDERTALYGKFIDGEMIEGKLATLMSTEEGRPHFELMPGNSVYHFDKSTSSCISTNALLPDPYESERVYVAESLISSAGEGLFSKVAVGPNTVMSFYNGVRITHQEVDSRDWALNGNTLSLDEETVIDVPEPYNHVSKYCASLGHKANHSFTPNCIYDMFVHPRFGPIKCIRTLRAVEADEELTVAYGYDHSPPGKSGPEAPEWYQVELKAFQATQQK

[16] = organism: Homo sapiens; experiment: Selectivity for recombinant human N-terminal His6-tagged NTMT1 (1 to 222 residues) expressed in Escherichia coli BL21-CodonPlus(DE3)-RIL over PRMT3 (unknown origin)
[17] = molecular target: Protein arginine N-methyltransferase 1 (Homo sapiens) (UniProt Q99873); experiment: Inhibition of PRMT1 (unknown origin) at 100 uM using H4-21 peptide as substrate preincubated for 10 mins in presence of SAM followed by substrate addition by SAHH-coupled fluorescence assay relative to control
[18] = molecular target: T2, N-terminal Xaa-Pro-Lys N-methyltransferase 1; experiment: Inhibition of NTMT1 in human HCT116 cells assessed as decrease in me3-RCC1 level incubated for 3 days by Western blot analysis; format: cell-based, HCT-116
[19] = system: HT-29; experiment: Cytotoxicity against human HT29 cells assessed as reduction in cell viability up to 1 mM incubated for 72 hrs by resazurin-dye based alamar blue assay; conditions: ht-29, 72 h
[20] = system: HCT-116; experiment: Cytotoxicity against human HCT116 cells assessed as reduction in cell viability up to 1 mM incubated for 72 hrs by resazurin-dye based alamar blue assay; conditions: hct-116, 72 h
[21] = system: HCT-116; experiment: Cytotoxicity against human HCT116 cells assessed as reduction in cell viability up to 1 mM incubated for 48 hrs by resazurin-dye based alamar blue assay; conditions: hct-116, 48 h
[22] = system: HCT-116; experiment: Cytotoxicity against human HCT116 cells assessed as reduction in cell viability up to 1 mM incubated for 24 hrs by resazurin-dye based alamar blue assay; conditions: hct-116, 24 h
[23] = molecular target: T1, N-terminal Xaa-Pro-Lys N-methyltransferase 1 (Homo sapiens); experiment: Inhibition of NTMT1 in human HT29 cells assessed as decrease in me3-RCC1 level at 100 uM incubated for 3 days by Western blot analysis; format: cell-based; conditions: HT-29, time 3.0 day
[24] = organism: Homo sapiens; experiment: Selectivity for recombinant human N-terminal His6-tagged NTMT1 (1 to 222 residues) expressed in Escherichia coli BL21-CodonPlus(DE3)-RIL over PRMT1 (unknown origin)
[25] = molecular target: T2, N-terminal Xaa-Pro-Lys N-methyltransferase 1; experiment: Inhibition of NTMT1 in human HT29 cells assessed as decrease in me3-RCC1 level incubated for 3 days by Western blot analysis; format: cell-based, HT-29
[26] = organism: Homo sapiens; experiment: Selectivity for recombinant human N-terminal His6-tagged NTMT1 (1 to 222 residues) expressed in Escherichia coli BL21-CodonPlus(DE3)-RIL over human His-tagged G9a (913 to 1193 residues) expressed in Escherichia coli BL21-CodonPlus(DE3)-RIL
[27] = organism: Homo sapiens; experiment: Selectivity for recombinant human N-terminal His6-tagged NTMT1 (1 to 222 residues) expressed in Escherichia coli BL21-CodonPlus(DE3)-RIL over His-tagged SETD7 (unknown origin)

Adenosylhomocysteinase (Homo sapiens), sequence (P23526 2-432 limits assumed): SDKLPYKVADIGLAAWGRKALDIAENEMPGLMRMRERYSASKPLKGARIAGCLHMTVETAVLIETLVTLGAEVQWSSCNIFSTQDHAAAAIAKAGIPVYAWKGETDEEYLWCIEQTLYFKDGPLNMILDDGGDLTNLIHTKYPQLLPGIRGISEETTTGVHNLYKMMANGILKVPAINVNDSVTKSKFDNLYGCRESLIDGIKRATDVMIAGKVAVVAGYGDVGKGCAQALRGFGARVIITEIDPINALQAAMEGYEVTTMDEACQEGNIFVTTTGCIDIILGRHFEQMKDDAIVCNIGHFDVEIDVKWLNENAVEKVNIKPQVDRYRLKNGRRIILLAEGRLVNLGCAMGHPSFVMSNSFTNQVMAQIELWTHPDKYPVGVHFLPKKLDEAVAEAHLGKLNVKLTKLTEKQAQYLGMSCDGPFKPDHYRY
Protein arginine N-methyltransferase 1 (Homo sapiens), sequence (Q99873 whole entry, looked up): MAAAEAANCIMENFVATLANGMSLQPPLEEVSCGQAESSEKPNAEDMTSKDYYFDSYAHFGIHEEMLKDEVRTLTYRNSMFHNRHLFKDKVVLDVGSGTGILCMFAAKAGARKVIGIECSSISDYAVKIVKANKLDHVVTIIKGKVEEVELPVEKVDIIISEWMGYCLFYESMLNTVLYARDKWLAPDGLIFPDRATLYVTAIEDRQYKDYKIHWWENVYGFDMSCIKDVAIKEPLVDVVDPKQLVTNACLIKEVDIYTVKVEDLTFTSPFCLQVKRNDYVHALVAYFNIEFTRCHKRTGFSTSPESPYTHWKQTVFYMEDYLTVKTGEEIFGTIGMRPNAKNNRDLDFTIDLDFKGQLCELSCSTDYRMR
Protein arginine N-methyltransferase 3 (Homo sapiens), sequence (O60678 2-531 limits assumed): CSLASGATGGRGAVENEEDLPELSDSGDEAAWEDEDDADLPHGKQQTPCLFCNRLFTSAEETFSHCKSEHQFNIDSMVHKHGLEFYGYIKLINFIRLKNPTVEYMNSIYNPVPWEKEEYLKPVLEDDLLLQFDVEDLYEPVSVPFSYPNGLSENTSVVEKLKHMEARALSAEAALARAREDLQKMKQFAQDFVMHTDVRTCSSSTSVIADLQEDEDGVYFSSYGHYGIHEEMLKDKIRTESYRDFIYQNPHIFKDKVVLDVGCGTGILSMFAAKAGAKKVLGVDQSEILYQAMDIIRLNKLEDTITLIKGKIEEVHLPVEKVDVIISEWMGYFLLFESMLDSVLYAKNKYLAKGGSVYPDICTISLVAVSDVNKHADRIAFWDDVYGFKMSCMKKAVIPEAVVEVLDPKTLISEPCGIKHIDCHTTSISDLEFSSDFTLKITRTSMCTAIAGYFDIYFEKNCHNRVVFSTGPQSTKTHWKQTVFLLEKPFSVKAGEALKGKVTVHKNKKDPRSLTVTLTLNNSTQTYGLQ

inhibition [1]: 47% | inhibition [2]: 1% | IC50 [3]: 970 nM | inhibition [4]: 0%
SMILES: NCCCC[C@H](NC(=O)[C@@H]1CCCN1C(=O)Cc1cccc2ccccc12)C(=O)Nc1cccc2ccccc12

Stabilty [5]: Stable
SMILES: CN(C(=O)[C@H](CCCCN)NC(=O)[C@@H]1CCCN1C(=O)Cc1cccc2ccccc12)[C@@H](CCCNC(=N)N)C(N)=O

Stabilty [5]: Stable | inhibition [1]: 70% | inhibition [2]: 3% | IC50 [3]: 580 nM | inhibition [4]: 0%
SMILES: C[C@@H](C(N)=O)N(C)C(=O)[C@H](CCCCN)NC(=O)[C@@H]1CCCN1C(=O)Cc1cccc2ccccc12

inhibition [6]: Active | Selectivity ratio [8]: > 300 | inhibition [9]: < 50% | inhibition [1]: 100% | inhibition [10]: < 50% | Selectivity ratio [12]: > 300 | inhibition [13]: < 50% | inhibition [2]: 90% | inhibition [14]: < 50% | inhibition [15]: < 50% | Selectivity ratio [16]: > 300 | inhibition [4]: 61% | inhibition [17]: < 50% | IC50 [18]: 100000 nM | inhibition [23]: Active | Selectivity ratio [24]: > 300 | IC50 [25]: 30000 nM | Selectivity ratio [26]: > 300 | Selectivity ratio [27]: > 300
SMILES: NCCCC[C@H](NC(=O)[C@@H]1CCCN1C(=O)Cc1cccc2ccccc12)C(=O)Nc1ccccc1C(N)=O
Activity [7]: Non-Toxic | Activity [11]: Non-Toxic | Activity [19]: Non-Toxic | Activity [20]: Non-Toxic | Activity [21]: Non-Toxic | Activity [22]: Non-Toxic

inhibition [1]: 79% | inhibition [2]: 55% | IC50 [3]: 1100 nM | inhibition [4]: 0%
SMILES: NCCCC[C@H](NC(=O)[C@@H]1CCCN1C(=O)Cc1cccc2ccccc12)C(=O)Nc1ccccc1
